Broadly, the IC50 is the concentration at which inhibition is half-maximal.

SMILES strings stand for the structures.

The target in this experiment is metallo-beta-lactamase IMP-1 (Pseudomonas aeruginosa) (UniProt Q79MP6). In words: IMP-1 metallo-beta-lactamase inhibitor potency, late-stage follow-up, biochemical, epi-absorbance, dose response (AID 2768). Conditions: purified IMP-1, absorbance substrate hydrolysis.
Sequence of metallo-beta-lactamase IMP-1 (Pseudomonas aeruginosa) (Q79MP6 1-246): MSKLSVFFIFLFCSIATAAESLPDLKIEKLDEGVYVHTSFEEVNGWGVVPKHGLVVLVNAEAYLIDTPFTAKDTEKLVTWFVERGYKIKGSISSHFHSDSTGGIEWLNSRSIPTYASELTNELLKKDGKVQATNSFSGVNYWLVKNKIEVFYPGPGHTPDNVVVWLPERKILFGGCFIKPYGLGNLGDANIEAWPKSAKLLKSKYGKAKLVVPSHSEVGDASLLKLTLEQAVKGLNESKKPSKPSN
`[Hg+][c]1ccccc1`: the 50% inhibitory concentration (IC50) was 1.51 µM. Take `Cc1cc[c]([Hg+])cc1`: the IC50 was 1.81 µM. Under `O=C(O)c1cc[c]([Hg][Cl])cc1` stands 8.7 µM. The value for `COc1cccc[c]1[Hg+]` was 2.33 µM; that for `O=C(O)c1ccc[c]([Hg+])c1` was 1.33 µM.

For the compound `CC(=O)Nc1cc[c]([Hg+])cc1`, the IC50 is 3.74 µM.

Values taken from PubChem BioAssay AID2768 (The Scripps Research Institute Molecular Screening Center, 2010).
